Laboratory results taken from patent publication US8178136B2, “Composition based on vegetal extracts of Ajuga reptans for preventing hair loss, stimulating the growth of hair, regulating the production of sebum” (Giuliani S.p.A., priority 2005, dated 2012).
Several values for one entry are separate records, joined by “and”; a condition that tells them apart may be missing. Equal entries are not always repeated.

Tested on: 5α-reductase
Assay: in-vivo inhibitory activity of 5α-reductase: haematic levels of DHT in rats after oral administration
Design: species or system rat
Conditions: for Seric concentrations of DHT: individual rat values; for Seric concentrations of DHT, average: basal average 335.7
Experimental: A study was carried out to determine in-vivo the inhibitory activity of 5α-reductase on the part of a total extract deriving from a cellular culture of Ajuga reptans.
The study was effected by determining the haematic levels of DHT (5α-dihydrotestosterone) on rats after administration of the extract being studied.
For the in-vivo study of the inhibition of 5α-reductase, Sprague-Dawley adult male rats were used (Charles River Italia) having a body weight of 200-250 g.
The animals were stalled under standard conditions: at a temperature of 22/23° C., with 65% relative humidity, exposing them to illumination cycles of 12 h light/12 h darkness.
A standard diet in the form of pellets (standard diet, Charles River) was administered to the rats, with water ad libitum
The experimentation was carried out according to protocols authorized by the Committee for the Care and Use of Animals of the Università degli Studi of Milan. Tests were carried out on the rats, effected from the retro-orbital plexus, immediately before the pharmalogical treatment (t0) and subsequently at a distance of 3, 6 and 8 hours after administration.
The administration of the substances being studied was effected orally.
In correspondence with each test on the animals treated, tests were also effected on non-treated animals to determine the basal analyte level. Both testosterone and DHT are in fact characterized by a significant circadian fluctuation.
The plasma obtained from the whole blood treated with EDTA after centrifugation was preserved at −20° C. until dosage.
The plasmatic concentrations of DHT (dihydrotestosterone) were determined with a commercial kit (DSL, Chematil, Angri, SA) after extraction of the samples.
All the samples of an experimental set were dosed together to reduce the inter-analytic variability.

CC(C)(C)NC(=O)[C@H]1CC[C@H]2[C@@H]3CC[C@H]4NC(=O)C=C[C@]4(C)[C@H]3CC[C@]12C [Finasteride]
Seric concentrations of DHT (Finasteride 1 mg oral, 3 hrs): 569.6 pg/mL and 404.6 pg/mL and 530.0 pg/mL and 298.1 pg/mL and 505.3 pg/mL and 300.0 pg/mL
Seric concentrations of DHT, average (Finasteride 1 mg oral, 3 hrs, n=6): 434.6 pg/mL
Seric concentrations of DHT (Finasteride 1 mg oral, 6 hrs): 592.1 pg/mL and 148.5 pg/mL and 420.1 pg/mL and 404.1 pg/mL and 565.0 pg/mL and 379.6 pg/mL
Seric concentrations of DHT, average (Finasteride 1 mg oral, 6 hrs, n=6): 418.2 pg/mL
Seric concentrations of DHT (Finasteride 1 mg oral, 8 hrs): 530.1 pg/mL and 173.1 pg/mL and 110.0 pg/mL and 706.7 pg/mL and 140.1 pg/mL and 503.9 pg/mL
Seric concentrations of DHT, average (Finasteride 1 mg oral, 8 hrs, n=6): 360.6 pg/mL
Seric concentrations of DHT (Finasteride 5 mg oral, 3 hrs): 641.0 pg/mL and 924.2 pg/mL and 569.4 pg/mL and 217.1 pg/mL and 618.6 pg/mL and 151.2 pg/mL
Seric concentrations of DHT, average (Finasteride 5 mg oral, 3 hrs, n=6): 520.2 pg/mL
Seric concentrations of DHT (Finasteride 5 mg oral, 6 hrs): 49.7 pg/mL and 128.3 pg/mL and 176.9 pg/mL and 81.2 pg/mL and 205.2 pg/mL and 103.6 pg/mL and 54.4 pg/mL and 60.7 pg/mL
Seric concentrations of DHT, average (Finasteride 5 mg oral, 6 hrs, n=8): 107.5 pg/mL
Seric concentrations of DHT (Finasteride 5 mg oral, 8 hrs): 576.6 pg/mL and 250.9 pg/mL and 300.1 pg/mL and 201.6 pg/mL and 108.8 pg/mL and 745.4 pg/mL
Seric concentrations of DHT, average (Finasteride 5 mg oral, 8 hrs, n=6): 363.9 pg/mL
trend of the concentration of DHT after administration (rats, oral, vs. basal levels): 8 hours after treatment, the DHT rises returning to the basal levels
